Data reported in PMC2763345 (PLoS Pathogens, 2009).
In brackets after ≈: the same amount, converted by molar mass.

What was measured:
[1] = tested on: M. smegmatis Rv3790/DprE1 Cys387Gly (MN47); format: cell-based
[2] = tested on: M. smegmatis Rv3790/DprE1 Cys387Ser (MN84); format: cell-based
[3] = tested on: BCG Rv3790/DprE1 Cys387Ser (BN2); format: cell-based, M. bovis BCG

| Compound | MIC [1] [µg/mL] | MIC [2] [µg/mL] | MIC [3] [µg/mL] |
| --- | --- | --- | --- |
| CO[C@H]1/C=C/O[C@@]2(C)Oc3c(C)c(O)c4c(O)c(c(/C=N/N5CCN(C)CC5)c(O)c4c3C2=O)NC(=O)/C(C)=C\C=C\[C@H](C)[C@H](O)[C@@H](C)[C@@H](O)[C@@H](C)[C@H](OC(C)=O)[C@@H]1C [Rifampin] | 0.31 (≈ 0.377 µM) | 0.31 (≈ 0.377 µM) | 0.31 (≈ 0.377 µM) |
| O=C(NCCOCc1ccccc1)c1cc([N+](=O)[O-])cc([N+](=O)[O-])c1 [Compound 7, N-(2-(benzyloxy)ethyl)-3,5-dinitrobenzamide] | – | – | > 10 |
| COc1ccc(OCCNC(=O)c2cc([N+](=O)[O-])cc([N+](=O)[O-])c2)cc1 [Compound 8, N-(2-(4-methoxyphenoxy)ethyl)-3,5-dinitrobenzamide] | – | – | > 10 |
